Several values for one entry are separate records, joined by “and”; a condition that tells them apart may be missing. Equal values may be shown once. Toxic doses and inconclusive results are not listed. Square brackets hold non-standard residues; d marks the D form. Peptide text beside a SMILES is read from it. * marks the point of attachment. ξ: configuration not given here. ξF = NC(Cc1ccccc1)C(=O)O; Cbz = O=C(OCc1ccccc1)*; Sar = CNCC(=O)O
System: BDF1 mice, B16 melanoma ip, median survival T/C
Test: NCI In Vivo Anticancer Drug Screen. Data for tumor model B16 Melanoma (intraperitoneal) in B6D2F1 (BDF1) mice
Conditions: endpoint: median survival time, higher = longer survival
How it was run: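 Survival or tumor size is measured after treatment of tumor-bearing mice and normalised to the vehicle-treated control group.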

[1] = dose: 3.12 mg/kg/injection, schedule: Q01DX009 (ip), vehicle: Klucel (hydroxypropylcellulose) (HPC)
[2] = dose: 6.25 mg/kg/injection, schedule: Q01DX009 (ip), vehicle: Klucel (hydroxypropylcellulose) (HPC)
[3] = dose: 25.0 mg/kg/injection, schedule: Q01DX009 (ip), vehicle: Klucel (hydroxypropylcellulose) (HPC)
[4] = dose: 50.0 mg/kg/injection, schedule: Q01DX009 (ip), vehicle: Klucel (hydroxypropylcellulose) (HPC)
[5] = dose: 12.5 mg/kg/injection, schedule: Q01DX009 (ip), vehicle: Klucel (hydroxypropylcellulose) (HPC)
[6] = dose: 12.5 mg/kg/injection, schedule: Q01DX009 (ip), vehicle: saline with Tween-80
[7] = dose: 50.0 mg/kg/injection, schedule: Q01DX009 (ip), vehicle: saline with Tween-80
[8] = dose: 100.0 mg/kg/injection, schedule: Q01DX009 (ip), vehicle: saline with Tween-80
[9] = dose: 200.0 mg/kg/injection, schedule: Q01DX009 (ip), vehicle: saline with Tween-80
[10] = dose: 25.0 mg/kg/injection, schedule: Q01DX009 (ip), vehicle: saline with Tween-80

In the case of `Cc1cc2c(c3oc(C4(C)OC4C4OC4C)cc(=O)c13)C(=O)c1c(O)c(C3CC(C)(N(C)C)C(O)C(C)O3)cc(C3CC(N(C)C)C(O)C(C)O3)c1C2=O` (stereo not given), the T/C (dose: 1.3 micrograms/kg/injection, schedule: Q01DX009 (ip), vehicle: clinical formulation) is reported as 108 % of control, the T/C (dose: 1.3 micrograms/kg/injection, schedule: Q01DX009 (ip), vehicle: saline) is reported as 97 % of control and the T/C (dose: 2.5 micrograms/kg/injection, schedule: Q01DX009 (ip), vehicle: clinical formulation) is reported as 117 % of control. The T/C (dose: 2.5 micrograms/kg/injection, schedule: Q01DX009 (ip), vehicle: saline) was 108 % of control, the T/C (dose: 4.0 micrograms/kg/injection, schedule: Q01DX009 (ip), vehicle: Klucel (hydroxypropylcellulose) (HPC)) was 119 % of control and the T/C (dose: 5.0 micrograms/kg/injection, schedule: Q01DX009 (ip), vehicle: Klucel (hydroxypropylcellulose) (HPC)) was 122 % of control. For the same molecule, the T/C (dose: 5.0 micrograms/kg/injection, schedule: Q01DX009 (ip), vehicle: saline) was 107 % of control and 108 % of control, the T/C (dose: 8.0 micrograms/kg/injection, schedule: Q01DX009 (ip), vehicle: Klucel (hydroxypropylcellulose) (HPC)) was 110 % of control and the T/C (dose: 10.0 micrograms/kg/injection, schedule: Q01DX009 (ip), vehicle: clinical formulation) was 113 % of control. For the same molecule, the T/C (dose: 10.0 micrograms/kg/injection, schedule: Q01DX009 (ip), vehicle: saline) was 101 % of control and 123 % of control, the T/C (dose: 20.0 micrograms/kg/injection, schedule: Q01DX009 (ip), vehicle: saline) was 124 % of control and the T/C (dose: 40.0 micrograms/kg/injection, schedule: Q01DX009 (ip), vehicle: saline) was 114 % of control.
With `CCn1c(O)c(C=N)c(=O)n(CC)c1=O` the T/C (dose: 150.0 mg/kg/injection, schedule: Q04DX003 (ip), vehicle: Klucel (hydroxypropylcellulose) (HPC)) was 90 % of control.
In the case of `OC[CH2][Hg][Br]`, the T/C (dose: 0.37 mg/kg/injection, schedule: Q01DX009 (ip), vehicle: saline) is reported as 97 % of control, the T/C (dose: 0.75 mg/kg/injection, schedule: Q01DX009 (ip), vehicle: saline) is reported as 94 % of control and the T/C (dose: 1.5 mg/kg/injection, schedule: Q01DX009 (ip), vehicle: saline) is reported as 94 % of control. For the same molecule, the T/C (dose: 3.0 mg/kg/injection, schedule: Q01DX009 (ip), vehicle: saline) was 93 % of control.
For `COc1ccc2c3c(c4cc(OC)c(OC)cc4c2c1)C[C@H]1CCCCN1C3`, the T/C (dose: 0.13 mg/kg/injection, schedule: Q01DX009 (ip), vehicle: saline) was 114 % of control, the T/C (dose: 0.25 mg/kg/injection, schedule: Q01DX009 (ip), vehicle: saline) was 109 % of control and the T/C (dose: 0.5 mg/kg/injection, schedule: Q01DX009 (ip), vehicle: saline) was 104 % of control.
`O=C1NC(c2ccccc2)(c2ccccc2)C(=O)N1CCN(CCCl)CCCl` was tested, and the T/C (dose: 1.3 mg/kg/injection, schedule: Q01DX009 (ip), vehicle: Klucel (hydroxypropylcellulose) (HPC)) was 93 % of control, the T/C (dose: 2.0 mg/kg/injection, schedule: Q01DX009 (ip), vehicle: Klucel (hydroxypropylcellulose) (HPC)) was 105 % of control and the T/C [1] was 160 % of control. For the same molecule, the T/C [2] was 161 % of control, the T/C [3] was 103 % of control and the T/C [4] was 153 % of control.
`COC(=O)c1c(C)cc(OC(=O)c2c(C)c(Cl)c(O)c(Cl)c2O)cc1O` was tested, and the T/C (dose: 5.0 mg/kg/injection, schedule: Q01DX009 (ip), vehicle: Klucel (hydroxypropylcellulose) (HPC)) was 97 % of control, the T/C (dose: 10.0 mg/kg/injection, schedule: Q01DX009 (ip), vehicle: Klucel (hydroxypropylcellulose) (HPC)) was 94 % of control and the T/C (dose: 20.0 mg/kg/injection, schedule: Q01DX009 (ip), vehicle: Klucel (hydroxypropylcellulose) (HPC)) was 100 % of control.
`Cc1cccc(C)c1NC(=S)N(C)C` was tested, and the T/C [1] was 102 % of control, the T/C (dose: 3.13 mg/kg/injection, schedule: Q01DX009 (ip), vehicle: saline with Tween-80) was 110 % of control and the T/C [2] was 100 % of control. For the same molecule, the T/C (dose: 6.25 mg/kg/injection, schedule: Q01DX009 (ip), vehicle: saline with Tween-80) was 115 % of control, the T/C [5] was 91 % of control and 100 % of control and the T/C [6] was 112 % of control.
`O=C(NC(Cc1ccccc1)C(=O)CCl)OCc1ccccc1` (stereo not given) was tested, and the T/C [5] was 100 % of control and the T/C [3] was 97 % of control.
`CN(CC(=O)NC(Cc1ccccc1)C(=O)O)C(=O)OCc1ccccc1` (stereo not given) (Cbz-[Sar]-[ξF]-OH) was tested, and the T/C [7] was 97 % of control, the T/C [8] was 96 % of control and the T/C [9] was 103 % of control.
For `CC(C)CNC(=O)Nc1ccccc1C(F)(F)F`, the T/C [10] was 97 % of control, the T/C [7] was 96 % of control and the T/C [8] was 86 % of control and 93 % of control. For the same molecule, the T/C [9] was 105 % of control and the T/C (dose: 400.0 mg/kg/injection, schedule: Q01DX009 (ip), vehicle: saline with Tween-80) was 97 % of control.
With `C[C@@H](CN1CC(=O)NC(=O)C1)N1CC(=O)NC(=O)C1` the T/C (dose: 8.0 mg/kg/injection, schedule: Q01DX009 (ip), vehicle: saline with Tween-80) was 100 % of control, the T/C (dose: 16.0 mg/kg/injection, schedule: Q01DX009 (ip), vehicle: saline with Tween-80) was 117 % of control and the T/C (dose: 16.0 mg/kg/injection, schedule: Q01DX009 (ip), vehicle: water) was 107 % of control and 122 % of control. The T/C (dose: 25.0 mg/kg/injection, schedule: Q04DX003 (ip), vehicle: water) was 101 % of control and 107 % of control, the T/C (dose: 32.0 mg/kg/injection, schedule: Q01DX009 (ip), vehicle: saline with Tween-80) was 112 % of control and the T/C (dose: 32.0 mg/kg/injection, schedule: Q01DX009 (ip), vehicle: water) was 111 % of control. For the same molecule, the T/C (dose: 50.0 mg/kg/injection, schedule: Q04DX003 (ip), vehicle: water) was 103 % of control, the T/C (dose: 100.0 mg/kg/injection, schedule: Q04DX003 (ip), vehicle: water) was 104 % of control and 112 % of control and the T/C (dose: 128.0 mg/kg/injection, schedule: Q01DX009 (ip), vehicle: water) was 113 % of control. The T/C (dose: 200.0 mg/kg/injection, schedule: Q04DX003 (ip), vehicle: water) was 103 % of control, the T/C (dose: 256.0 mg/kg/injection, schedule: Q01DX009 (ip), vehicle: water) was 87 % of control and the T/C (dose: 400.0 mg/kg/injection, schedule: Q04DX003 (ip), vehicle: water) was 117 % of control. The T/C (dose: 800.0 mg/kg/injection, schedule: Q04DX003 (ip), vehicle: water) was 88 % of control.
`CC(=O)OC1c2ccccc2C(=O)C1(OC(C)=O)c1ccccc1` (stereo not given) was tested, and the T/C [4] was 102 % of control, the T/C (dose: 100.0 mg/kg/injection, schedule: Q01DX009 (ip), vehicle: Klucel (hydroxypropylcellulose) (HPC)) was 94 % of control and the T/C (dose: 200.0 mg/kg/injection, schedule: Q01DX009 (ip), vehicle: Klucel (hydroxypropylcellulose) (HPC)) was 102 % of control.
`CC(=O)Nc1cc2c(cc1Br)-c1ccccc1C2O` (stereo not given) was tested, and the T/C [6] was 92 % of control, the T/C (dose: 12.5 mg/kg/injection, schedule: Q04DX003 (ip), vehicle: saline with Tween-80) was 92 % of control and the T/C [10] was 102 % of control. The T/C (dose: 25.0 mg/kg/injection, schedule: Q04DX003 (ip), vehicle: saline with Tween-80) was 100 % of control, the T/C [7] was 89 % of control and the T/C (dose: 50.0 mg/kg/injection, schedule: Q04DX003 (ip), vehicle: saline with Tween-80) was 95 % of control. The T/C (dose: 100.0 mg/kg/injection, schedule: Q04DX003 (ip), vehicle: saline with Tween-80) was 90 % of control.
In the case of `CC1(C)N=C(N)N=C(N)N1c1ccc(CCC(=O)Nc2ccc(S(=O)(=O)F)cc2)c(Cl)c1`, the T/C (dose: 6.25 mg/kg/injection, schedule: Q01DX009 (ip), vehicle: saline) is reported as 104 % of control and the T/C (dose: 12.5 mg/kg/injection, schedule: Q01DX009 (ip), vehicle: saline) is reported as 108 % of control.
